Reference: paper PMC6591251, “Discovery of potent necroptosis inhibitors targeting RIPK1 kinase activity for the treatment of inflammatory disorder and cancer metastasis” (Cell Death & Disease, 2019)

Tests used:
Assay in all cases: RBC kinase panel
Type in all cases: biochemical
P38b/MAPK11 = target: T1, P38b/MAPK11 (Homo sapiens, UniProt Q15759); conditions: ATP 10 μM, Data1, Data2
T1 construct: purchased Reaction Biology Corporation
Experimental: (§1) PK68 was tested at 1 μM in duplicate against a panel of 369 human kinases at Reaction Biology Corporation. Results are viewed in the human kinome phylogenetic tree.
(§2) ^a Compound PK68 was tested at 1 μM in duplicate against 369 kinases using the RBC kinase panel service of Reaction Biology Corporation. All the ATP concentrations used were 10 μM. […] Full protocol details are available at http://www.reactionbiology.com.

P38g = target: T2, P38g (Homo sapiens, UniProt P53778); conditions: ATP 10 μM, Data1, Data2
T2 construct: purchased Reaction Biology Corporation
Experimental: as §1, §2

HIPK2 = target: T3, HIPK2 (Homo sapiens, UniProt Q9H2X6); conditions: ATP 10 μM, Data1, Data2
T3 construct: purchased Reaction Biology Corporation
Experimental: as §1, §2

MSSK1/STK23 = target: T4, MSSK1/STK23 (Homo sapiens, UniProt Q9UPE1); conditions: ATP 10 μM, Data1, Data2
T4 construct: purchased Reaction Biology Corporation
T4 sequence (Q9UPE1 whole entry): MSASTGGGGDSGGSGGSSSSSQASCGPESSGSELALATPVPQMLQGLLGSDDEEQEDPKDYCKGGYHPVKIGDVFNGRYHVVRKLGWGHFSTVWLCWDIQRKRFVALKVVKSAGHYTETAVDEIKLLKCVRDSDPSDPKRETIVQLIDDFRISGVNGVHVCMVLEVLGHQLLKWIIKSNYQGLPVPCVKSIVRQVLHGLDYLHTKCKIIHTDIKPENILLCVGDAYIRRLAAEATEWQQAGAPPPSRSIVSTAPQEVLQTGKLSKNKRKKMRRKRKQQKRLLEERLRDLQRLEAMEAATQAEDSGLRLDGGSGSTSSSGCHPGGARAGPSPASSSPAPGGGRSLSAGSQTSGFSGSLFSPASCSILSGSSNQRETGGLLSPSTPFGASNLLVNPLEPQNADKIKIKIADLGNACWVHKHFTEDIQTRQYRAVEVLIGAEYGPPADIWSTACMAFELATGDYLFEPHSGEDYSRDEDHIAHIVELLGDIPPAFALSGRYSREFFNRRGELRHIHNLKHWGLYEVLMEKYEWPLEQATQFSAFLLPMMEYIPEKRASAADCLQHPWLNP
Experimental: as §1, §2

RIPK5 = target: T5, RIPK5 (Homo sapiens, UniProt Q6XUX3); conditions: ATP 10 μM, Data1, Data2
T5 construct: purchased Reaction Biology Corporation
Experimental: as §1, §2

SYK = target: T6, SYK (Homo sapiens, UniProt P43405); conditions: ATP 10 μM, Data1, Data2
T6 construct: purchased Reaction Biology Corporation
Experimental: as §1, §2

MNK2 = target: T7, MNK2 (Homo sapiens, UniProt Q9HBH9); conditions: ATP 10 μM, Data1, Data2
T7 construct: purchased Reaction Biology Corporation
Experimental: as §1, §2

PLK1 = target: T8, PLK1 (Homo sapiens, UniProt P53350); conditions: ATP 10 μM, Data1, Data2
T8 construct: purchased Reaction Biology Corporation
Experimental: as §1, §2

PLK3 = target: T9, PLK3 (Homo sapiens, UniProt Q9H4B4); conditions: ATP 10 μM, Data1, Data2
T9 construct: purchased Reaction Biology Corporation
Experimental: as §1, §2

GRK6 = target: T10, GRK6 (Homo sapiens, UniProt P43250); conditions: ATP 10 μM, Data1, Data2
T10 construct: purchased Reaction Biology Corporation
T10 sequence (P43250 whole entry): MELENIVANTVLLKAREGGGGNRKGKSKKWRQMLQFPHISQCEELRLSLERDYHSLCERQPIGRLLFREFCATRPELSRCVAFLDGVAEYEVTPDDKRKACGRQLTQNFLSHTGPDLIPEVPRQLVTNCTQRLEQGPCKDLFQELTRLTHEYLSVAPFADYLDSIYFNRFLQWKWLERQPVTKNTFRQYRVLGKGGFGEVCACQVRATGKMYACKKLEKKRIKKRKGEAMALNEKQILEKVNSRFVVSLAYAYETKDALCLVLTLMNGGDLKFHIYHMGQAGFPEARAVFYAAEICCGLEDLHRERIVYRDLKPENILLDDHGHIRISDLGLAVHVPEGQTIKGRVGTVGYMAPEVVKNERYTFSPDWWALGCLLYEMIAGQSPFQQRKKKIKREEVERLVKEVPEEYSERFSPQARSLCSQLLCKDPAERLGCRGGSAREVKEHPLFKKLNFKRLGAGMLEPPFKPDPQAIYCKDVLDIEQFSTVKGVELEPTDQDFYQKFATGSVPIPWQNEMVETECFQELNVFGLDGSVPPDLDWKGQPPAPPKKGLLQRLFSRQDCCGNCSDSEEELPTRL
Experimental: as §1, §2

ERK1 = target: T11, ERK1 (Homo sapiens, UniProt P27361); conditions: ATP 10 μM, Data1, Data2
T11 construct: purchased Reaction Biology Corporation
Experimental: as §1, §2

JAK1 = target: T12, JAK1 (Homo sapiens, UniProt P23458); conditions: ATP 10 μM, Data1, Data2
T12 construct: purchased Reaction Biology Corporation
T12 sequence (P23458 whole entry): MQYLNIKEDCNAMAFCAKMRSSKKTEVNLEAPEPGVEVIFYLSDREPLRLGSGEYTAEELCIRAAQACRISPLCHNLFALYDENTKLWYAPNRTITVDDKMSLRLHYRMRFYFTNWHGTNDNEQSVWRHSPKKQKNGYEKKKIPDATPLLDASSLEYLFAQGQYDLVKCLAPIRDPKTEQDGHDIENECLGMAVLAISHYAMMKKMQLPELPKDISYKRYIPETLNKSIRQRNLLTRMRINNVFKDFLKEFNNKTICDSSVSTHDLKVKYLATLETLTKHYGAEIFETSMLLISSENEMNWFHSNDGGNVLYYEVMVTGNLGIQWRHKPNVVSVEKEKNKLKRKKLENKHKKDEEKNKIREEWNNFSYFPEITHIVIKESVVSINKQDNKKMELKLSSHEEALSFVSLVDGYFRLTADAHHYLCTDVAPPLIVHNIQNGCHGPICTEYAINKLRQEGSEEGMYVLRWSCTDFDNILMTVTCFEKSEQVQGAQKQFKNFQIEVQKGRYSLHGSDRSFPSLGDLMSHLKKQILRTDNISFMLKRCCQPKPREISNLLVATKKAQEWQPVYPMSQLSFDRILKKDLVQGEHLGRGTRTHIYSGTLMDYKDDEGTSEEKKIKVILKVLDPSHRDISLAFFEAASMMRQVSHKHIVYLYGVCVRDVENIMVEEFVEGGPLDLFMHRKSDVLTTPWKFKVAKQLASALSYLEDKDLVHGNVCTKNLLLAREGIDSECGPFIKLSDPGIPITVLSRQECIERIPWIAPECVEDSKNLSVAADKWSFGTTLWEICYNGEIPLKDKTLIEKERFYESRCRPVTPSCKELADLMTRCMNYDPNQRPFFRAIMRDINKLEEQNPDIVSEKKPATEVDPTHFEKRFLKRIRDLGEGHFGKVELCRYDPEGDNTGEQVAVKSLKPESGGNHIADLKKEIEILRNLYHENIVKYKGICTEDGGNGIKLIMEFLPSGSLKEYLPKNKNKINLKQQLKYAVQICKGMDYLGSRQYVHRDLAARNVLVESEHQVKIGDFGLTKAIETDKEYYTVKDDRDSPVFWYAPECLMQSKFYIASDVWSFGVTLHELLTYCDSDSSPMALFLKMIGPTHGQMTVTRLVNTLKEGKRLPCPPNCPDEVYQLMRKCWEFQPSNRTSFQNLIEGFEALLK
Experimental: as §1, §2

TAOK1 = target: T13, TAOK1 (Homo sapiens, UniProt Q7L7X3); conditions: ATP 10 μM, Data1, Data2
T13 construct: purchased Reaction Biology Corporation
T13 sequence (Q7L7X3 whole entry): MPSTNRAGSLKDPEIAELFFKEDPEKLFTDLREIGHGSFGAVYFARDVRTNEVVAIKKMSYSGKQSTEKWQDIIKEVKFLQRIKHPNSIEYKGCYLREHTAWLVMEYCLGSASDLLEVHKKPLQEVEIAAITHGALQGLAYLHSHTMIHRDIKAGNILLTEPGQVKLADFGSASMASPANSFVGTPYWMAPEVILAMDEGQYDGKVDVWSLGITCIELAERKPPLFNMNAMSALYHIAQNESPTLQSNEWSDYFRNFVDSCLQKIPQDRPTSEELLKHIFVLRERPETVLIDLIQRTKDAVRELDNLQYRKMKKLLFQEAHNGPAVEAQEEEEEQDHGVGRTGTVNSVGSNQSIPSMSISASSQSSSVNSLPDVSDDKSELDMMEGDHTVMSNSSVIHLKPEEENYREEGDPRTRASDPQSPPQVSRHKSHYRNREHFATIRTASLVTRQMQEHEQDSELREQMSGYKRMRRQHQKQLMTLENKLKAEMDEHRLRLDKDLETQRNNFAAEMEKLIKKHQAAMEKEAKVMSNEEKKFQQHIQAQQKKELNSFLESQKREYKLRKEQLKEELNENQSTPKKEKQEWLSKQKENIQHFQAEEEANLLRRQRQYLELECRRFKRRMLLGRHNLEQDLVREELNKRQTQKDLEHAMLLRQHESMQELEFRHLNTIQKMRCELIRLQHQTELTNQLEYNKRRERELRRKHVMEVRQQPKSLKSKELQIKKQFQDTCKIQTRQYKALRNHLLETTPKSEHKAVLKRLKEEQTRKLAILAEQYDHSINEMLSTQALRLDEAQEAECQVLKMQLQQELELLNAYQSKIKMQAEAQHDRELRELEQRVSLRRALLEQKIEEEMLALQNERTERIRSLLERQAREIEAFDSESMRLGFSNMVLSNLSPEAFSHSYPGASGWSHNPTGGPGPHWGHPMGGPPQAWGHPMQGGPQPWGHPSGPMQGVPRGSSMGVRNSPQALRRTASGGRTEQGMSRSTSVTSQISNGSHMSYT
Experimental: as §1, §2

CDK5/p35 = target: T14, CDK5/p35 (Homo sapiens, UniProt Q00535); conditions: ATP 10 μM, Data1, Data2
T14 construct: purchased Reaction Biology Corporation
Experimental: as §1, §2

CDK14/cyclin Y (PFTK1) = target: T15, CDK14/cyclin Y (PFTK1) (Homo sapiens, UniProt O94921); conditions: ATP 10 μM, Data1, Data2
T15 construct: purchased Reaction Biology Corporation
Experimental: as §1, §2

MLCK2/MYLK2 = target: T16, MLCK2/MYLK2 (Homo sapiens, UniProt Q9H1R3); conditions: ATP 10 μM, Data1, Data2
T16 construct: purchased Reaction Biology Corporation
Experimental: as §1, §2

CAMK2a = target: T17, CAMK2a (Homo sapiens, UniProt Q9UQM7); conditions: ATP 10 μM, Data1, Data2
T17 construct: purchased Reaction Biology Corporation
T17 sequence (Q9UQM7 whole entry): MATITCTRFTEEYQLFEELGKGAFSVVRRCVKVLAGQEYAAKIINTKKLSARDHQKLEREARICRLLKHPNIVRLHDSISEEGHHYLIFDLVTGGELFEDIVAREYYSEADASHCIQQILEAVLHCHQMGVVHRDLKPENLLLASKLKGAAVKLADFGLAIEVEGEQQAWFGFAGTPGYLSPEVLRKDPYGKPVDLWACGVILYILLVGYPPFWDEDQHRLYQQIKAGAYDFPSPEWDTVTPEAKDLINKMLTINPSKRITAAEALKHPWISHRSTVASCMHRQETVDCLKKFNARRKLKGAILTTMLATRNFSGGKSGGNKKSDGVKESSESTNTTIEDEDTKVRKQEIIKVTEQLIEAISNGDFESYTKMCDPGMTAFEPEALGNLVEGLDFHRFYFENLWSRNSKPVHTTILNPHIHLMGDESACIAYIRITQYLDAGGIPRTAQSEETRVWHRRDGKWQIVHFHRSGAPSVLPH
Experimental: as §1, §2

TESK2 = target: T18, TESK2 (Homo sapiens, UniProt Q96S53); conditions: ATP 10 μM, Data1, Data2
T18 construct: purchased Reaction Biology Corporation
Experimental: as §1, §2

ERBB4/HER4 = target: T19, ERBB4/HER4 (Homo sapiens, UniProt Q15303); conditions: ATP 10 μM, Data1, Data2
T19 construct: purchased Reaction Biology Corporation
Experimental: as §1, §2

ALK5/TGFBR1 = target: T20, ALK5/TGFBR1 (Homo sapiens, UniProt P36897); conditions: ATP 10 μM, Data1, Data2
T20 construct: purchased Reaction Biology Corporation
Experimental: as §1, §2

CAMK2d = target: T21, CAMK2d (Homo sapiens, UniProt Q13557); conditions: ATP 10 μM, Data1, Data2
T21 construct: purchased Reaction Biology Corporation
Experimental: as §1, §2

WEE1 = target: T22, WEE1 (Homo sapiens, UniProt P30291); conditions: ATP 10 μM, Data1, Data2
T22 construct: purchased Reaction Biology Corporation
T22 sequence (P30291 whole entry): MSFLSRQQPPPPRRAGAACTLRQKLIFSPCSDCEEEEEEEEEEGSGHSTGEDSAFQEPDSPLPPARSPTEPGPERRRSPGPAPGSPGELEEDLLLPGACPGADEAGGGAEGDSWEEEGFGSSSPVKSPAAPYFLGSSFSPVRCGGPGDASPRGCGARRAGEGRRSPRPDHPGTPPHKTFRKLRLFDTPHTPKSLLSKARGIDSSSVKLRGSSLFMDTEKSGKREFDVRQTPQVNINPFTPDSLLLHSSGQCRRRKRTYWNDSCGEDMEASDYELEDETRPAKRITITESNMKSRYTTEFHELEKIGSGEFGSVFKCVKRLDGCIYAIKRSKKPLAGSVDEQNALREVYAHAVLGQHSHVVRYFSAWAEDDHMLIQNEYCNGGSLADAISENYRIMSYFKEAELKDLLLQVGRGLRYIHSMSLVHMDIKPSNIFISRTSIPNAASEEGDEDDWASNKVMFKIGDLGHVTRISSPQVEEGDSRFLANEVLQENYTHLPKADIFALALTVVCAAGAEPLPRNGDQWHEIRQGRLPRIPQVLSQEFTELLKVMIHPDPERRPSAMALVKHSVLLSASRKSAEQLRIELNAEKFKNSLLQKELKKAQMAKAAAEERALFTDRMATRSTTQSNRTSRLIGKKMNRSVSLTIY
Experimental: as §1, §2

PDK1/PDPK1 = target: T23, PDK1/PDPK1 (Homo sapiens, UniProt O15530); conditions: ATP 10 μM, Data1, Data2
T23 construct: purchased Reaction Biology Corporation
Experimental: as §1, §2

MYLK4 = target: T24, MYLK4 (Homo sapiens, UniProt Q86YV6); conditions: ATP 10 μM, Data1, Data2
T24 construct: purchased Reaction Biology Corporation
Experimental: as §1, §2

LIMK2 = target: T25, LIMK2 (Homo sapiens, UniProt P53671)
T25 construct: purchased Reaction Biology Corporation
T25 sequence (P53671 whole entry): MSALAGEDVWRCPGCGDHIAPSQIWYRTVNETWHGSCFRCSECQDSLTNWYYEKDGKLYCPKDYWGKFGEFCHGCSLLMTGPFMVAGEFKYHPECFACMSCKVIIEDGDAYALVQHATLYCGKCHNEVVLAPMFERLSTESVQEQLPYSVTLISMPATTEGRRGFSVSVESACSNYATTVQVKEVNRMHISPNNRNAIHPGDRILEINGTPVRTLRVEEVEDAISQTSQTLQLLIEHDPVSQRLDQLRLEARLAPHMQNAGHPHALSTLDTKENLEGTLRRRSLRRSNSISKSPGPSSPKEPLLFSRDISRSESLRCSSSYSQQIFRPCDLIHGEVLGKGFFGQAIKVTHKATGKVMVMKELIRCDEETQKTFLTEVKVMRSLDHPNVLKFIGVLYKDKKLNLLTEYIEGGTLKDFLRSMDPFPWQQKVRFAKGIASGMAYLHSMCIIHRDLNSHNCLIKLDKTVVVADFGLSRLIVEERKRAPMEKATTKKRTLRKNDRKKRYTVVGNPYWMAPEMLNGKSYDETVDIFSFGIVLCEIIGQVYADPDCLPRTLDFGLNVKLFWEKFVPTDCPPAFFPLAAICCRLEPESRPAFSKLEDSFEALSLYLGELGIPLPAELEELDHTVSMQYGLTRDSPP
Experimental: as §1, §2

Haspin = target: T26, Haspin (Homo sapiens, UniProt Q8TF76); conditions: ATP 10 μM, Data1, Data2
T26 construct: purchased Reaction Biology Corporation
Experimental: as §1, §2

PKCnu/PRKD3 = target: T27, PKCnu/PRKD3 (Homo sapiens, UniProt O94806); conditions: ATP 10 μM, Data1, Data2
T27 construct: purchased Reaction Biology Corporation
Experimental: as §1, §2

PKN2/PRK2 = target: T28, PKN2/PRK2 (Homo sapiens, UniProt Q16513); conditions: ATP 10 μM, Data1, Data2
T28 construct: purchased Reaction Biology Corporation
Experimental: as §1, §2

NEK3 = target: T29, NEK3 (Homo sapiens, UniProt P51956); conditions: ATP 10 μM, Data1, Data2
T29 construct: purchased Reaction Biology Corporation
Experimental: as §1, §2

BRAF = target: T30, BRAF (Homo sapiens, UniProt P15056); conditions: ATP 10 μM, Data1, Data2
T30 construct: purchased Reaction Biology Corporation
Experimental: as §1, §2

HIPK1 = target: T31, HIPK1 (Homo sapiens, UniProt Q86Z02); conditions: ATP 10 μM, Data1, Data2
T31 construct: purchased Reaction Biology Corporation
Experimental: as §1, §2

LCK2/ICK = target: T32, LCK2/ICK (Homo sapiens, UniProt Q9UPZ9); conditions: ATP 10 μM, Data1, Data2
T32 construct: purchased Reaction Biology Corporation
Experimental: as §1, §2

CDK7/cyclin H = target: T33, CDK7/cyclin H (Homo sapiens, UniProt P50613); conditions: ATP 10 μM, Data1, Data2
T33 construct: purchased Reaction Biology Corporation
Experimental: as §1, §2

CC(=O)Nc1nc2ccc(-c3cnc(C)c(NC(=O)OC4CCCCC4)c3)cc2s1 [PK68, cyclohexyl (5-(2-acetamidobenzo[d]thiazol-6-yl)-2-methylpyridin-3-yl)carbamate]
Activity% (P38b/MAPK11; 1 μM): 102.60% | activity at 1 µM (P38b/MAPK11): 103% | Activity% (P38g; 1 μM): 105.38% | activity at 1 µM (P38g): 109% | Activity% (HIPK2; 1 μM): 110.22% | activity at 1 µM (HIPK2): 111% | Activity% (MSSK1/STK23; 1 μM): 100.79% | activity at 1 µM (MSSK1/STK23): 103% | Activity% (RIPK5; 1 μM): 102.45% | activity at 1 µM (RIPK5): 103% | Activity% (SYK; 1 μM): 98.85% | activity at 1 µM (SYK): 99.5% | Activity% (MNK2; 1 μM): 88.77% | activity at 1 µM (MNK2): 90.5% | Activity% (PLK1; 1 μM): 93.68% | activity at 1 µM (PLK1): 94.6% | Activity% (PLK3; 1 μM): 104.01% | activity at 1 µM (PLK3): 105% | Activity% (GRK6; 1 μM): 99.89% | activity at 1 µM (GRK6): 102% | Activity% (ERK1; 1 μM): 87.90% | activity at 1 µM (ERK1): 91.6% | Activity% (JAK1; 1 μM): 99.20% | activity at 1 µM (JAK1): 99.5% | Activity% (TAOK1; 1 μM): 79.31% | activity at 1 µM (TAOK1): 79.8% | Activity% (CDK5/p35; 1 μM): 100.63% | activity at 1 µM (CDK5/p35): 102% | Activity% (CDK14/cyclin Y (PFTK1); 1 μM): 96.97% | activity at 1 µM (CDK14/cyclin Y (PFTK1)): 97.4% | Activity% (MLCK2/MYLK2; 1 μM): 50.92% | activity at 1 µM (MLCK2/MYLK2): 51.3% | Activity% (CAMK2a; 1 μM): 99.17% | activity at 1 µM (CAMK2a): 100% | Activity% (TESK2; 1 μM): 92.21% | activity at 1 µM (TESK2): 94.3% | Activity% (ERBB4/HER4; 1 μM): 99.02% | activity at 1 µM (ERBB4/HER4): 99.7% | Activity% (ALK5/TGFBR1; 1 μM): 94.67% | activity at 1 µM (ALK5/TGFBR1): 95.1% | Activity% (CAMK2d; 1 μM): 98.13% | activity at 1 µM (CAMK2d): 98.9% | Activity% (WEE1; 1 μM): 94.05% | activity at 1 µM (WEE1): 95.7% | Activity% (PDK1/PDPK1; 1 μM): 90.43% | activity at 1 µM (PDK1/PDPK1): 92.7% | Activity% (MYLK4; 1 μM): 89.75% | activity at 1 µM (MYLK4): 92.7% | Activity% (LIMK2; 1 μM, ATP 10 μM, Data1, Data2): 42.64% | activity at 1 µM (LIMK2; 1 μM, ATP 10 μM, Data1, Data2): 44% | inhibition at 1 µM (LIMK2; at 1000 nM): > 50% | Activity% (Haspin; 1 μM): 94.31% | activity at 1 µM (Haspin): 94.5% | Activity% (PKCnu/PRKD3; 1 μM): 101.06% | activity at 1 µM (PKCnu/PRKD3): 102% | Activity% (PKN2/PRK2; 1 μM): 62.44% | activity at 1 µM (PKN2/PRK2): 62.6% | Activity% (NEK3; 1 μM): 116.50% | activity at 1 µM (NEK3): 119% | Activity% (BRAF; 1 μM): 83.61% | activity at 1 µM (BRAF): 84.8% | Activity% (HIPK1; 1 μM): 86.01% | activity at 1 µM (HIPK1): 87.4% | Activity% (LCK2/ICK; 1 μM): 100.77% | activity at 1 µM (LCK2/ICK): 101% | Activity% (CDK7/cyclin H; 1 μM): 87.73% | activity at 1 µM (CDK7/cyclin H): 89.2%
